According to patent US10104891B2 (priority 2014, dated 2018):

What was measured:
Format in all cases: in vivo
[1] = tested on: Pseudoperonospora cubensis; assay: Test 2: control effect against cucumber downy mildew; details: control value vs untreated section; for pest or weed control at 4 µg/mL: Pseudoperonospora cubensis, 120 h
In short: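 Protective test: zoospores (1.0×10^4 units/ml) misted one day after applying a 4 ppm suspension (wettable powder diluted in 1/5000 Tween20) to 2-leaf cucumber, Sagami hanjiro. After 16 hr at 22° C humid incubation, leaf lesion area read at day 5, expressed as control value versus untreated leaves.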

Phytophthora infestans = assay: whole plant or invertebrate; details: for control value (Test 1): tomato late blight, control value vs untreated section; for pest or weed control at 4 µg/mL: Phytophthora infestans, in Solanum lycopersicum, 96 h, read-out: control value (Test 1)
Plasmopara viticola = assay: Test 3: control effect against grape downy mildew; details: control value vs untreated section; for pest or weed control at 4 µg/mL: Plasmopara viticola, 120 h
In short: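 Leaf lesion area, scored 5 days after inoculation and compared with untreated plants, gives the control value. Inoculation used P. viticola zoospores (1.0×10^4 units/ml) with a 16 hr moist incubation at 22° C. It followed by one day a spray of 4 ppm compound (wettable powder in Tween20) onto Neomuscat seedlings.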

Row | Compound | control value (Test 2) [1] | control value (Test 1) (Phytophthora infestans) | control value (Test 3) (Plasmopara viticola) | pest or weed control at 4 µg/mL [1] [%] | pest or weed control at 4 µg/mL (Phytophthora infestans) [%] | pest or weed control at 4 µg/mL (Plasmopara viticola) [%]
1 | COc1cccc2c1COC(c1csc(C3CCN(C(=O)Cn4nc(C(F)(F)F)cc4C)CC3)n1)OC2 (stereo not drawn) [Compound 1-135] | 100 | 100 | 100 | – | – | –
2 | O=C(Cn1nc(C(F)F)cc1C(F)F)N1CCC(c2nc(C3OCc4cccc(OC(F)F)c4CO3)cs2)CC1 (stereo not drawn) [Compound 1-136] | 100 | 100 | 100 | – | – | –
3 | O=C(Cn1nc(C(F)(F)F)cc1C(F)(F)F)N1CCC(c2nc(C3OCc4cccc(OC(F)F)c4CO3)cs2)CC1 (stereo not drawn) [Compound 1-137] | 100 | 100 | 100 | – | – | –
4 | CS(=O)(=O)Oc1ccc2c(c1)COC(c1csc(C3CCN(C(=O)Cn4nc(C(F)F)cc4C(F)F)CC3)n1)OC2 (stereo not drawn) [Compound 1-138] | 100 | 100 | 100 | – | – | –
5 | CS(=O)(=O)Oc1ccc2c(c1)COC(c1csc(C3CCN(C(=O)Cn4nc(C(F)(F)F)cc4C(F)(F)F)CC3)n1)OC2 (stereo not drawn) [Compound 1-139] | 100 | 100 | 100 | – | – | –
6 | COc1cccc2c1COC(c1csc(C3CCN(C(=O)Cn4nc(C(F)F)cc4C(F)F)CC3)n1)OC2 (stereo not drawn) [Compound 1-141] | 100 | 100 | 100 | – | – | –
7 | COc1ccc(F)c2c1COC(c1csc(C3CCN(C(=O)Cn4nc(C(F)(F)F)cc4C(F)(F)F)CC3)n1)OC2 (stereo not drawn) [Compound 1-142] | 100 | 100 | 100 | – | – | –
8 | Cc1cc(C(F)(F)F)nn1CC(=O)N1CCC(c2nc(C3OCc4c(OC(F)F)ccc(OS(C)(=O)=O)c4CO3)cs2)CC1 (stereo not drawn) [Compound 1-143] | 100 | 100 | 100 | – | – | –
9 | O=C(Cn1nc(C(F)F)cc1C(F)F)N1CCC(c2nc(C3OCc4cccc(C=NO)c4CO3)cs2)CC1 (stereo not drawn) [Compound 1-145] | 100 | 100 | 100 | – | – | –
10 | CS(=O)(=O)Oc1ccc(OS(C)(=O)=O)c2c1COC(c1csc(C3CCN(C(=O)Cn4nc(C(F)F)cc4C(F)F)CC3)n1)OC2 [Compound 1-146] | 100 | 100 | 100 | – | – | –
11 | CS(=O)(=O)Oc1ccc(OS(C)(=O)=O)c2c1COC(c1csc(C3CCN(C(=O)Cn4nc(C(F)(F)F)cc4C(F)(F)F)CC3)n1)OC2 [Compound 1-147, 4-[4-[6,9-bis(methylsulfonyloxy)-1,5-dihydro-3H-2,4-benzodioxepin-3-yl]-2-thiazolyl]-1-[2-[3,5-bis(trifluoromethyl)-1H-pyrazole-1-yl]acetyl]piperidine] | – | – | – | 90 | 90 | 70
12 | N#Cc1cccc2c1COC(c1csc(C3CCN(C(=O)Cn4nc(C(F)F)cc4C(F)F)CC3)n1)OC2 (stereo not drawn) [Compound 1-148] | 100 | 100 | 100 | – | – | –
13 | O=C(Cn1nc(C(F)(F)F)cc1C(F)(F)F)N1CCC(c2nc(C3OCc4cccc(C=NO)c4CO3)cs2)CC1 (stereo not drawn) [Compound 1-149] | 100 | 100 | 100 | – | – | –
14 | N#Cc1cccc2c1COC(c1csc(C3CCN(C(=O)Cn4nc(C(F)(F)F)cc4C(F)(F)F)CC3)n1)OC2 (stereo not drawn) [Compound 1-150] | 100 | 100 | 100 | – | – | –
15 | CS(=O)(=O)Oc1cccc2c1COC(c1csc(N3CCN(C(=O)Cn4nc(C(F)F)cc4C(F)F)CC3)n1)OC2 (stereo not drawn) [Compound 1-151] | 100 | 100 | 100 | – | – | –
16 | Cc1cc(C(F)(F)F)nn1C(C)C(=O)N1CCC(c2nc(C3OCc4cccc(OS(C)(=O)=O)c4CO3)cs2)CC1 (stereo not drawn) [Compound 1-152] | 100 | 100 | 100 | – | – | –
17 | Cc1cc(C(F)F)nn1CC(=O)N1CCC(c2nc(C3OCc4c(F)ccc(OS(C)(=O)=O)c4CO3)cs2)CC1 (stereo not drawn) [Compound 1-153] | 100 | 100 | 100 | – | – | –

Row | Compound | control value (Test 2) [1] | control value (Test 1) (Phytophthora infestans) | control value (Test 3) (Plasmopara viticola) | pest or weed control at 4 µg/mL [1] [%] | pest or weed control at 4 µg/mL (Phytophthora infestans) [%] | pest or weed control at 4 µg/mL (Plasmopara viticola) [%]
18 | Cc1cc(C(F)(F)F)nn1CC(=O)N1CCC(c2nc(C3(C)OCc4c(F)ccc(OS(C)(=O)=O)c4CO3)cs2)CC1 (stereo not drawn) [Compound 1-154] | 100 | 90 | 100 | – | – | –
19 | Cc1cc(C(F)(F)F)nn1C(F)(F)C(=O)N1CCC(c2nc(C3OCc4c(F)ccc(OS(C)(=O)=O)c4CO3)cs2)CC1 (stereo not drawn) [Compound 1-155] | 100 | 100 | 100 | – | – | –
20 | Cc1cc(C(F)(F)F)nn1C(C)C(=O)N1CCC(c2nc(C3OCc4c(F)ccc(OS(C)(=O)=O)c4CO3)cs2)CC1 (stereo not drawn) [Compound 1-156] | 100 | 100 | 100 | – | – | –
21 | Cc1cc(C(F)(F)F)nn1CC(=O)N1CCC(c2nc(C3OCc4c(F)ccc(OS(C)(=O)=O)c4CO3)cs2)C(C)C1 (stereo not drawn) [Compound 1-157] | 100 | 100 | 100 | – | – | –
22 | Cc1cc(C(F)(F)F)nn1CC(=O)N1CCC(c2nc(C3OCc4c(F)ccc(OS(C)(=O)=O)c4CO3)cs2)CC1C (stereo not drawn) [Compound 1-159] | 100 | 100 | 100 | – | – | –
23 | CC(C(=O)N1CCC(c2nc(C3OCc4c(F)ccc(OS(C)(=O)=O)c4CO3)cs2)CC1)n1nc(C(F)F)cc1C(F)F (stereo not drawn) [Compound 1-160] | 100 | 100 | 100 | – | – | –
24 | Cc1cc(C(F)(F)F)nn1CC(=O)N1CCC(c2nc(C3OCc4c(O)ccc(F)c4CO3)cs2)CC1 (stereo not drawn) [Compound 1-161] | 100 | 100 | 100 | – | – | –
25 | Cc1ccc(C)c(CC(=O)N2CCC(c3nc(C4OCc5c(F)ccc(F)c5CO4)cs3)CC2)c1 [Compound 2-6] | 100 | 100 | 100 | – | – | –
26 | Cc1ccc(C)c(CC(=O)N2CCC(c3nc(C4OCc5c(F)ccc(OS(C)(=O)=O)c5CO4)cs3)CC2)c1 (stereo not drawn) [Compound 2-8] | 100 | 100 | 100 | – | – | –
27 | COc1ccc([N+](=O)[O-])c2c1COC(c1csc(C3CCN(C(=O)Cc4cc(C)ccc4C)CC3)n1)OC2 (stereo not drawn) [Compound 2-9] | 100 | 100 | 100 | – | – | –
28 | Cc1ccc(C)c(CC(=O)N2CCC(c3nc(C4OCc5ccccc5CO4)cs3)CC2)c1 [Compound 2-11] | 100 | 100 | 100 | – | – | –
29 | CCCCS(=O)(=O)Oc1cccc2c1COC(c1csc(C3CCN(C(=O)Cc4cc(C)ccc4C)CC3)n1)OC2 (stereo not drawn) [Compound 2-12, 4-[4-(6-butylsulfonyloxy-1,5-dihydro-3H-2,4-benzodioxepin-3-yl)-2-thiazolyl]-1-[2-(2,5-dimethylphenyl)acetyl]piperidine] | – | – | – | 90 | 80 | 80
30 | Cc1ccc(C)c(NC(=O)N2CCC(c3nc(C4OCc5c(F)ccc(OS(C)(=O)=O)c5CO4)cs3)CC2)c1 (stereo not drawn) [Compound 2-14] | 100 | 100 | 100 | – | – | –
31 | Cc1ccc(C)c(NC(=O)N2CCC(c3nc(C4OCc5c(F)ccc(F)c5CO4)cs3)CC2)c1 [Compound 2-15] | 100 | 100 | 100 | – | – | –
32 | CS(=O)(=O)Oc1ccc(F)c2c1COC(c1csc(C3CCN(C(=O)Cc4cc(Cl)ccc4Cl)CC3)n1)OC2 (stereo not drawn) [Compound 2-16] | 100 | 100 | 100 | – | – | –
33 | Cc1ccc(C)c(CC(=O)N2CCC(c3nc(C4OCc5cccc(Br)c5CO4)cs3)CC2)c1 (stereo not drawn) [Compound 2-17] | 100 | 90 | 100 | – | – | –
